From PubChem BioAssay (NCI) come the findings set out here.

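How tested: cells in 96-well plates exposed to compound for 48 hours at five concentrations. GI50 marks 50% less growth. The concentration for full growth arrest is given as TGI.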 Where a SMILES comes first, the peptide text is derived from it. Bridges are numbered along the chain shown (N, C = ends). [ ]: non-standard residue; d: D form. The star is where a group is joined. Cbz = O=C(OCc1ccccc1)*; Aib = CC(C)(N)C(=O)O; OBn = c1ccc(CO*)cc1; βAla = NCCC(=O)O

Test systems include TK-10 renal; EKVX NSCLC; SK-OV-3 ovarian; MDA-MB-231 breast; HCT-116 colon; HL-60(TB) leukemia; NCI-H23 lung; HOP-92 NSCLC; ACHN renal; RXF 393 renal; DU-145 prostate; MDA-MB-435; HCC-2998 colon; M14 melanoma; HCT-15 colon; SK-MEL-5 melanoma; LOX IMVI melanoma; OVCAR-3 ovarian.
Common to all, as to assay: NCI anticancer screen, dose series, 48 h

Regarding `CCOC(=O)/C(O)=C(/C=NC(=S)c1ccncc1)C(=O)OCC`, the GI50 in the assay with TK-10 renal and with HOP-92 NSCLC was over 100 µM in each case. The TGI in the assay with TK-10 renal, in the assay with EKVX NSCLC, in the assay on SK-OV-3 ovarian, with MDA-MB-231 breast, with HCT-116 colon and in the assay with HL-60(TB) leukemia was over 100 µM throughout. The TGI in the assay with NCI-H23 lung, with HOP-92 NSCLC, with ACHN renal, in the assay on RXF 393 renal, in the assay on DU-145 prostate and in the assay on MDA-MB-435 was over 100 µM in each case. The TGI is over 100 µM in the assay with HCC-2998 colon; over 100 µM in the assay on M14 melanoma; over 100 µM in the assay on HCT-15 colon; over 100 µM with SK-MEL-5 melanoma; over 100 µM in the assay with LOX IMVI melanoma; over 28.8 µM with OVCAR-3 ovarian.

Turning to `CC(C)NC(=O)OCc1c(COC(=O)NC(C)C)c(-c2ccc[n+](COC(=O)CC(C)(C)C)c2)n2c1CCC2`, the TGI in the assay with TK-10 renal, with EKVX NSCLC, in the assay with SK-OV-3 ovarian, in the assay on MDA-MB-231 breast, in the assay with HCT-116 colon and in the assay on HL-60(TB) leukemia was over 100 µM throughout. Moreover, the TGI in the assay on NCI-H23 lung, in the assay with HOP-92 NSCLC, in the assay with ACHN renal, with RXF 393 renal, in the assay on DU-145 prostate and in the assay on MDA-MB-435 was over 100 µM in each case. Moreover, the TGI in the assay on HCC-2998 colon, in the assay with M14 melanoma, in the assay on HCT-15 colon, in the assay with SK-MEL-5 melanoma, in the assay with LOX IMVI melanoma and in the assay on OVCAR-3 ovarian was over 100 µM each time.

As to `N#CC1=C(N2CCCC2)NC(=O)CC1=O`, the TGI in the assay on TK-10 renal, in the assay with EKVX NSCLC, in the assay on SK-OV-3 ovarian, with MDA-MB-231 breast, in the assay with HCT-116 colon and in the assay on HL-60(TB) leukemia was over 100 µM in each case. Besides, the TGI in the assay on NCI-H23 lung, with HOP-92 NSCLC, in the assay on ACHN renal, in the assay on RXF 393 renal, in the assay on DU-145 prostate and in the assay with MDA-MB-435 was over 100 µM throughout. For the same compound, the TGI in the assay with HCC-2998 colon, in the assay on M14 melanoma, with HCT-15 colon, in the assay with SK-MEL-5 melanoma, in the assay on LOX IMVI melanoma and with OVCAR-3 ovarian was over 100 µM throughout.

Regarding `CCSc1nc(N2CCOCC2)c2cn[nH]c2n1`, the TGI with TK-10 renal, with EKVX NSCLC, in the assay with SK-OV-3 ovarian, in the assay on MDA-MB-231 breast, in the assay on HCT-116 colon and in the assay with HL-60(TB) leukemia was over 100 µM in each case. Besides, the TGI in the assay with NCI-H23 lung, in the assay on HOP-92 NSCLC, in the assay with ACHN renal, with RXF 393 renal, in the assay on DU-145 prostate and in the assay with MDA-MB-435 was over 100 µM throughout. Moreover, the TGI in the assay with HCC-2998 colon, in the assay on M14 melanoma, in the assay with HCT-15 colon, in the assay with SK-MEL-5 melanoma, in the assay with LOX IMVI melanoma and in the assay on OVCAR-3 ovarian was over 100 µM throughout.

As to `CC1(C)NC(=O)C(NC(=O)C(CC(=O)OCc2ccccc2)NC(=O)OCc2ccccc2)CCCCNC(=O)CCNC1=O` (stereo not given) (Cbz-D(OBn)K[Aib][βAla]; lactam 2-C; configuration not given here), the TGI in the assay with TK-10 renal, in the assay on EKVX NSCLC, in the assay on SK-OV-3 ovarian, in the assay with MDA-MB-231 breast, in the assay with HCT-116 colon and in the assay on HL-60(TB) leukemia was over 100 µM in each case. In addition, the TGI with NCI-H23 lung, with HOP-92 NSCLC, with ACHN renal, in the assay with RXF 393 renal, with DU-145 prostate and in the assay on MDA-MB-435 was over 100 µM throughout. For the same compound, the TGI in the assay on HCC-2998 colon, with M14 melanoma, with HCT-15 colon, in the assay with SK-MEL-5 melanoma, in the assay with LOX IMVI melanoma and in the assay on OVCAR-3 ovarian was over 100 µM each time.

Take `CC(=O)NNc1nc(C)c(C(/C=C/c2cccc([N+](=O)[O-])c2)=N/NC(=S)NN)s1`: the TGI in the assay on TK-10 renal, in the assay on EKVX NSCLC, in the assay with SK-OV-3 ovarian, with MDA-MB-231 breast, with HCT-116 colon and in the assay with HL-60(TB) leukemia was over 100 µM in each case. Further, the TGI with NCI-H23 lung, in the assay on HOP-92 NSCLC, in the assay with ACHN renal, with RXF 393 renal, in the assay on DU-145 prostate and in the assay with MDA-MB-435 was over 100 µM in each case. The TGI in the assay with HCC-2998 colon, in the assay on M14 melanoma, with HCT-15 colon, with SK-MEL-5 melanoma, in the assay with LOX IMVI melanoma and in the assay on OVCAR-3 ovarian was over 100 µM each time.
